Experimental data reported in patent publication US20240342148A1, “METHODS OF TREATING FACIOSCAPULOHUMERAL MUSCULAR DYSTROPHY WITH LOSMAPIMOD” (Fulcrum Therapeutics, Inc., priority 2021, published 2024).

Experiments:
[1] = Plasma losmapimod concentrations (PK), Phase 2b RCT; assay type: in vivo, human; settings: 15 mg orally BID
Experimental: Blood samples for PK assessment (plasma losmapimod concentrations) were collected at D1, Wk4, Wk16, and Wk36 at the following time points: immediately pre-dose and 4 hours (±30 minutes) after administration of the study dose (approximate Cmax). PK samples were also taken, when feasible, after dosing during the Wk12, Wk24, and Wk48 visits, preferably ≥1 hour after dosing.
Plasma and muscle losmapimod concentrations were measured by 2 validated bioanalytical high-performance liquid chromatography methods by PPD, USA (PPD 2019).

[2] = system: p38a/b MAPK pathway; experiment: Target engagement in blood: pHSP27/HSP27total ELISA after ex vivo sorbitol stimulation; set-up: species or system human
Experimental: Blood samples for target engagement were collected at D1 and Wk16 or Wk36, at the same pre- and post-dose time points as PK samples.
Blood samples for measurement of total heat shock protein 27 (HSP27total) and phosphorylated heat shock protein 27 (pHSP27) were collected into EDTA-containing tubes. Two mL of whole blood was stimulated ex vivo with sorbitol for 30 minutes at room temperature to induce phosphorylation of HSP27 as a measure of p38a/b MAPK activity. Sorbitol stimulation activates the p38a/b MAPK pathway in blood and allows for more robust detection of inhibition of the p38a/b MAPK pathway by losmapimod. Subsequently, samples were lysed on ice and lysates frozen at −80° C. pHSP27 and HSP27total were measured by a validated enzyme-linked immunosorbent assay method (Cambridge Biomedical Inc., Boston, MA, USA and Immunologix, Tampa, FL, USA). Inter- and intra-assay precision for both pHSP27 and HSP27total met the preapproved criteria of <25% CV having been run in 5 replicates with the LLOQ established for pHSP27 at 20.7 ng/ml and ULOQ at 470.1 ng/ml and the LLOQ established for HSP27total at 105.2 ng/ml and ULOQ at 2168.1 ng/mL.

[3] = system: subjects with FSHD; experiment: Safety and tolerability in the RCT; assay type: in vivo, human; settings: 15 mg BID up to 48 weeks
Experimental: All safety analyses were performed using the safety analysis set based on as-treated treatment group. Safety analyses included summaries of TEAEs, clinical laboratory, vital signs and ECGs.

[4] = system: patients with FSHD1; experiment: Wearable sensor (Actimyo) physical activity, open label study; assay type: in vivo, human; settings: over 1 year treatment; Mild or Upper group compared to Lower or Both group
Experimental: This study evaluated feasibility to monitor daily activity and assess functional outcomes using wearable sensor devices in an open label study (OLS) of losmapimod in facioscapulohumeral muscular dystrophy (FSHD). 14 patients with FSHD1 received 15 mg losmapimod twice per day for a 52 week open label treatment period.
Feasibility was measured by the reliability of the data over time and amount of background noise. The secondary objective was patients' compliance with using the wearable device.
Upper limb and lower limb mobility were evaluated with “Actimyo” made by Sysnav. Actimyo quantifies movements of patients with neuromuscular disorders such as Duchenne muscular dystrophy (DMD), Spinal amyotrophy (SMA), Parkinson's and records activity based on magneto-inertial navigation. Raw data from the sensors are loaded on to the internal memory of the docking station/charging unit, and transmitted daily via an internet connection to a remote storage platform. Participants are provided with two watch like sensors to measure movements: On the ankle for lower extremity movements like gait; and On the wrist for upper extremity movements like mobility. Two kinds of movements were evaluated: Free living movement, which was recorded by wearing two devices all day (12-16 hours); and Imposed movements (2 times per day), which were a set of movements evaluated twice daily.

Plasma concentrations of losmapimod pre-dose ([1]; pre-dose): 25.2 to 34.4 ng/mL
Cmax at 4 h ([1]; human, plasma, po, 4 h post-dose, read-out: Plasma concentrations of losmapimod 4 h post-dose (approximate Cmax)): 66.4 to 91.8 ng/mL
Structure (SMILES): Cc1c(F)cc(C(=O)NC2CC2)cc1-c1ccc(C(=O)NCC(C)(C)C)cn1 [losmapimod, 6-(5-cyclopropylcarbamoyl-3-fluoro-2-methyl-phenyl)-N-(2,2-dimethylpropyl-)-nicotinamide]
Reduction of pHSP27/HSP27total compared to placebo at Cmax [2]: 48.0-70.2%
Safety and tolerability [3]: favorable safety and tolerability
Physical function as measured by gait velocity [4]: tends to increase
